Experiments:
[1] = biological target: B-Raf (Homo sapiens, UniProt P15056); experiment: B-Raf kinase activity assay (AlphaScreen, biotin-MEK1 substrate); settings: 100 μM ATP, 100 nM biotin-MEK1, 45 minutes at room temperature; read-out: Biochemical activity (IC50 μM) B-Raf
Outline: (§1)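 Each Raf enzyme (0.1 ng) phosphorylates 100 nM biotin-MEK1 in pH 7.0 HEPES with Mg2+/Mn2+, 100 μM ATP final, 45 min at room temperature. Phospho-MEK1/2 antibody with AlphaScreen beads is read after 3 h. IC50 comes from an 8-point dilution series.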

[2] = biological target: B-Raf V600E (Homo sapiens, UniProt P15056, V600E); experiment: B-Raf V600E kinase activity assay (AlphaScreen, biotin-MEK1 substrate); settings: 100 μM ATP, 100 nM biotin-MEK1, 45 minutes at room temperature, read-out: Biochemical activity (IC50 μM) V600E
Outline: as §1

[3] = biological target: c-Raf-1 (Homo sapiens, UniProt P04049); experiment: c-Raf-1 kinase activity assay (AlphaScreen, biotin-MEK1 substrate); settings: 100 μM ATP, 100 nM biotin-MEK1, 45 minutes at room temperature; read-out: Biochemical activity (IC50 μM) c-Raf-1
Outline: as §1

[4] = biological target: T1, CYP1A2 (Homo sapiens, UniProt P05177); experiment: CYP1A2 inhibition (fluorescent substrate CEC); format: in vitro ADME; settings: read-out: Cyp IC50 (μM) 1A2
T1 sequence (P05177 1-516): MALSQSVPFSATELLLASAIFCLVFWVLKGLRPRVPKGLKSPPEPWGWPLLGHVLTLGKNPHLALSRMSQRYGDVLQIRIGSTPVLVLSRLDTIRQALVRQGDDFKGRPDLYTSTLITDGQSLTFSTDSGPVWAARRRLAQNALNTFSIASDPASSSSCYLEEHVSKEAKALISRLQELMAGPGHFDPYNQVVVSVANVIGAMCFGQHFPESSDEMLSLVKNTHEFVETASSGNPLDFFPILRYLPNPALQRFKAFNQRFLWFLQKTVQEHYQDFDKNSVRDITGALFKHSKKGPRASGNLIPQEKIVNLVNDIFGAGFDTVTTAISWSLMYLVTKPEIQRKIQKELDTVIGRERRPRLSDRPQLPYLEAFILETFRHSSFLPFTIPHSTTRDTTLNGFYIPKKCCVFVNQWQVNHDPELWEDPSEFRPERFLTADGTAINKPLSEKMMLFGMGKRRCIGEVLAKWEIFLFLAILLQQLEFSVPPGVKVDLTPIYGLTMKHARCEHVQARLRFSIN
Description: (§2) CYP (Cytochrome P450) enzymes are the major drug metabolizing enzymes present in the liver. The inhibition of CYP enzyme activity (IC50) for each of CYP1A2, CYP2C19, CYP2C9, CYP2D6, CYP3A4(BFC) and CYP3A4(BQ) is determined for compounds, where inhibition of metabolism of a known substrate leads to a decrease in the fluorescence of the metabolized product. The fluorescence of the product is monitored as a function of compound concentration. Compounds are dissolved in dimethyl sulfoxide to a concentration of 100 mM. These are diluted […], into 82 μL of acetonitrile. An 11 μL aliquot of this solution is then added to 204 μL of cofactor mix (1.3% NADPH Regeneration system Solution A, 1.04% NADPH Regeneration system Solution B from BD Biosciences, 5% acetonitrile and 0.05% dimethyl sulfoxide). These are then serially diluted 1:1 (160 μL to 160 μL co-factor mix) for a total of 10 points. A 10 μL aliquot of this final mixture is dispensed into 384 well assay plates and incubated for 10 minutes at 37° C. Enzyme and substrate mix (10 μL; 0.5 pmol CYP1A2/5 μM CEC; 1.0 pmol CYP2C9/75 μM MFC; 0.5 pmol CYP2C19/25 μM CEC; 1.5 pmol CYP2D6/1.5 μM AMMC; 1.0 pmol CYP3A4/50 μM BFC; or 1.0 pmol CYP3A4/40 μM BQ) is added to these assay plates. Assay plates are incubated at 37° C. (CYP1A2-15 min; CYP2C9-45 min; CYP2C19, 2D6 and 3A4-30 min) and read in a Tecan Safire 2 plate reader (CYP1A2, 2C19 and 3A4 409 ex/460 em; CYP2C9 and 2D6 409 ex/530 em). The signal versus compound concentration is used to determine the IC50. The enzymes and substrates for this assay are obtained from BD Biosciences.

[5] = biological target: CYP2C19 (Homo sapiens, UniProt P33261); experiment: CYP2C19 inhibition (fluorescent substrate CEC); format: in vitro ADME; settings: read-out: Cyp IC50 (μM) 2C19
Description: as §2

[6] = biological target: CYP2C9 (Homo sapiens, UniProt P11712); experiment: CYP2C9 inhibition (fluorescent substrate MFC); format: in vitro ADME; settings: read-out: Cyp IC50 (μM) 2C9
Description: as §2

[7] = biological target: CYP2D6 (Homo sapiens, UniProt P10635); experiment: CYP2D6 inhibition (fluorescent substrate AMMC); format: in vitro ADME; settings: read-out: Cyp IC50 (μM) 2D6
Description: as §2

[8] = biological target: CYP3A4(BFC) (Homo sapiens, UniProt P08684); experiment: CYP3A4 inhibition (substrate BFC); format: in vitro ADME; settings: read-out: Cyp IC50 (μM) 3A4(BFC)
Description: as §2

[9] = biological target: CYP3A4(BQ) (Homo sapiens, UniProt P08684); experiment: CYP3A4 inhibition (substrate BQ); format: in vitro ADME; settings: read-out: Cyp IC50 (μM) 3A4(BQ)
Description: as §2

[10] = Relative solubility by turbidity in aqueous buffers (pH 1.5, 4.5, 6.8, 7.4); format: physicochemical
Outline: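 2-fold DMSO dilution series from 25 mM stocks were added to SGF (0.5M NaCl, pH 1.5), SIF (0.05M NaH2PO4, pH 4.5/6.8) or HEPES (10 mM, 150 mM NaCl, pH 7.4). Absorbance at 490, 535 and 650 nm; value is the concentration crossing OD 0.01, averaged over wavelengths. Low <31.3 μM, moderate 31.3–250 μM, high >250 μM.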

[11] = system: A375 melanoma (B-Raf V600E mutation); experiment: A375 cell growth inhibition (ATPlite luminescence); format: cell-based; settings: Homo sapiens, A-375, 72 h, A375 cells, incubated 3 days with compound
Description: Compounds are assessed in a variety of cell based assays. For example human cell lines with B-Raf V600E mutation (A375 melanoma, SKMEL3 melanoma, and COLO205 colon adenocarcinoma), as well as tumorigenic cell lines with wild-type B-RAF (SW620 colon adenocarcinoma) or with Ras mutations (SKMEL2 melanoma and IPC298 melanoma). Similar assays may be used to assess additional tumorigenic cell lines with Ras mutations, including, but not limited to, M202, M207, M243, M244, M296, S117, HCT116, HCT15, DLD1, MiaPaCa, A549, NCI-H23, NCI-H460, HOP62, MDA-MB231, Hs-578T, HL60, MOLT-4, and CCRF-CEM.
On day 1, cells are counted, then centrifuged in a conical tube for 5 minutes at 1000 rpm. The supernatant is removed and cells are re-suspended as follows: • SW620 (ATCC catalog #CCL-27): resuspend in Leibovitz's L-15 medium, 2 mM L-glutamine, 10% fetal bovine serum to 6×10^4 cells/mL. • A375 (ATCC catalog #CRL-1619): resuspend in Dulbecco's modified Eagle's medium, 4 mM L-glutamine, 4.5 g/L D-glucose, 10% fetal bovine serum to 6×10^4 cells/mL. • COLO205 (ATCC catalog #CCL-222): resuspend in RPMI 1640, 2 mM L-glutamine, 1.5 g/L sodium bicarbonate, 4.5 g/L D-glucose, 10 mM HEPES, 1.0 mM sodium pyruvate, 10% fetal bovine serum to 6×10^4 cells/mL. • SKMEL2 (ATCC catalog #HTB-68): resuspend in Minimum Eagle essential medium, 2 mM L-glutamine, 1.5 g/L sodium bicarbonate, 0.1 mM non-essential amino acids, 1.0 mM sodium pyruvate, 10% fetal bovine serum to 6×10^4 cells/mL. • SKMEL3 (ATCC catalog #HTB-69): resuspend in McCoy's 5A medium, 1.5 mM L-glutamine, 15% fetal bovine serum to 6×10^4 cells/mL. • IPC298 (DSMZ catalog #ACC 251): resuspend in RPMI 1640, 2 mM L-glutamine, 10% fetal bovine serum to 6×10^4 cells/mL.
The cells are plated, 50 μL in each well of a 96-well dish (Corning 3610) and incubated at 37° C. in 5% CO2 overnight, cells plated to a final concentration of cells as follows:
On day 2, compound at a maximum concentration of 5 mM is serially diluted 1:3 (e.g. 10 μL with 30 μL dimethyl sulfoxide) for a total of 8 point titration with DMSO as a control. A 1 μL aliquot of each dilution point and control is added to 249 μL growth media and 50 μL is added to a well containing cells, providing 10 μM compound at the maximum concentration point. The cells are incubated for 3 days at 37° C. in 5% CO2.
On day 5, ATPlite 1 step Luminescence Assay System (Perkin Elmer #6016739) is brought to room temperature along with the cell cultures. ATPlite is added 25 μL to each well, shake for 2 minutes, and the cells are incubated at room temperature for 10 minutes, then luminescence is read on Safire reader. The measured luminescence correlates directly with cell number, such that the reading as a function of compound concentration is used to determine the IC50 value.
It is understood that the results of these assays may vary as assay conditions are varied. Inhibition levels determined under the conditions described herein represent a relative activity for the compounds tested under the specific conditions employed. The cell based assays are likely to show variability due to the complexity of the system and the sensitivity thereof to any changes in the assay conditions. […] Results for compounds that are tested and show substantially no inhibition below the highest tested concentration are represented as “-” in the tables below. In some instances, the compounds were not tested in all of the assays, or assay results were not valid, as indicated by NA in the tables below.

[12] = system: COLO205 colon adenocarcinoma (B-Raf V600E mutation); experiment: COLO205 cell growth inhibition (ATPlite luminescence); format: cell-based; settings: Homo sapiens, COLO 205, 72 h, COLO205 cells, incubated 3 days with compound
Outline: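 Cells seeded at 6×10^4 cells/mL in line-specific medium with 10% FBS, held overnight at 37°C, then given an 8-point 1:3 compound titration (top 10 μM final) for 3 days at 37°C, 5% CO2. ATP content read by ATPlite luminescence as a cell-number proxy; IC50 fitted from luminescence versus concentration.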

Chain of c-Raf-1 (P04049 whole entry Y340D/Y341D, form open): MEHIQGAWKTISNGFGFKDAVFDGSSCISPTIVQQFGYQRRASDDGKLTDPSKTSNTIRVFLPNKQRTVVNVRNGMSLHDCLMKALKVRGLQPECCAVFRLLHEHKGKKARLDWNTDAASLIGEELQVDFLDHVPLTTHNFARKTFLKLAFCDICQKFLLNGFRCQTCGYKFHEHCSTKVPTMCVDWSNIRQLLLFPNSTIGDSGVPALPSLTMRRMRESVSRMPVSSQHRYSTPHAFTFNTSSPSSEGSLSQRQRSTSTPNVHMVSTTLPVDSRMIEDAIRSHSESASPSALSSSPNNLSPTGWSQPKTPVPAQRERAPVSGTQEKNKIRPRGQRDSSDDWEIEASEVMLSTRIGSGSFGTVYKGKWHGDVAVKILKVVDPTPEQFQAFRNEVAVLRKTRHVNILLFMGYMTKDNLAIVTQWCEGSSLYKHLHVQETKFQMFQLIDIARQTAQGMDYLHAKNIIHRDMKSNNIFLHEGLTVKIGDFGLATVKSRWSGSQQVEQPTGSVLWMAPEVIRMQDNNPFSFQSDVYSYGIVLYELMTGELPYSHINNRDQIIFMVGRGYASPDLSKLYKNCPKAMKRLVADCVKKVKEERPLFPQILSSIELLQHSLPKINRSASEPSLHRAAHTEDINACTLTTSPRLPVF
Chain of B-Raf (P15056 whole entry): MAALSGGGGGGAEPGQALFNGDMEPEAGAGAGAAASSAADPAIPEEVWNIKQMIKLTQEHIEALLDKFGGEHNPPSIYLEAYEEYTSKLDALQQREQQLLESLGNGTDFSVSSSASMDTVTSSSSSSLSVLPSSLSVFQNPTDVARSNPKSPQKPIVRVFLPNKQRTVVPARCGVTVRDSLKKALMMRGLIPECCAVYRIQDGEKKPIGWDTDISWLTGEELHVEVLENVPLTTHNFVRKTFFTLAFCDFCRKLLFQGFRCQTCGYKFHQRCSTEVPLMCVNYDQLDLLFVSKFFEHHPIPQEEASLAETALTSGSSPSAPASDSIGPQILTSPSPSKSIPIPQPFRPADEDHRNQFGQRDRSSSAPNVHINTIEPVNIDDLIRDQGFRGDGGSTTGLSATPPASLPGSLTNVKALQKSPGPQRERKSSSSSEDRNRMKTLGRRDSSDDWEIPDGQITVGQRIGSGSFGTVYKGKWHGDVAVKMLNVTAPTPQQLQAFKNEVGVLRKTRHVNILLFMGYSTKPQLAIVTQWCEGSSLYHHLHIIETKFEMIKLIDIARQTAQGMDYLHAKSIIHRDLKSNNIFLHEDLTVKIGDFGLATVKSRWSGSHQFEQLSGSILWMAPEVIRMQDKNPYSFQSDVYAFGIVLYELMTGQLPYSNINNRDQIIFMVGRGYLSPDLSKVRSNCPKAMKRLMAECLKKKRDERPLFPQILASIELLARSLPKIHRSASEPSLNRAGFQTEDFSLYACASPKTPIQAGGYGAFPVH
Chain of B-Raf V600E (P15056 whole entry V600E): as the sequence (P15056 whole entry) above, with V600E counted along it
Chain of CYP3A4(BFC) (P08684 whole entry): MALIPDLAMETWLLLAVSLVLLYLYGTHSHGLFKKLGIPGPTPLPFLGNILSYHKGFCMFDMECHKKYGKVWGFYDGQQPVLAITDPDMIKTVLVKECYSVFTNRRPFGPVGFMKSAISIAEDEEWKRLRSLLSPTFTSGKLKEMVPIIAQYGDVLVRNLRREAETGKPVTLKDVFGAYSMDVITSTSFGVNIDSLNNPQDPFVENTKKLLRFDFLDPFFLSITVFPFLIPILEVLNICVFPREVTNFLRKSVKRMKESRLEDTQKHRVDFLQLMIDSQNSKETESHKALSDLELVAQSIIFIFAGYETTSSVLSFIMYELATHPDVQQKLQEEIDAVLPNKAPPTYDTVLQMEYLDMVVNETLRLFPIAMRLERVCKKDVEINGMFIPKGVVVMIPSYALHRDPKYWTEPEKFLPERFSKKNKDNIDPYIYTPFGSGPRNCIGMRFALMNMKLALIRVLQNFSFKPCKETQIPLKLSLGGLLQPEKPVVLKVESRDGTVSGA
Chain of CYP3A4(BQ) (P08684 whole entry): as above
Chain of CYP2C19 (P33261 whole entry): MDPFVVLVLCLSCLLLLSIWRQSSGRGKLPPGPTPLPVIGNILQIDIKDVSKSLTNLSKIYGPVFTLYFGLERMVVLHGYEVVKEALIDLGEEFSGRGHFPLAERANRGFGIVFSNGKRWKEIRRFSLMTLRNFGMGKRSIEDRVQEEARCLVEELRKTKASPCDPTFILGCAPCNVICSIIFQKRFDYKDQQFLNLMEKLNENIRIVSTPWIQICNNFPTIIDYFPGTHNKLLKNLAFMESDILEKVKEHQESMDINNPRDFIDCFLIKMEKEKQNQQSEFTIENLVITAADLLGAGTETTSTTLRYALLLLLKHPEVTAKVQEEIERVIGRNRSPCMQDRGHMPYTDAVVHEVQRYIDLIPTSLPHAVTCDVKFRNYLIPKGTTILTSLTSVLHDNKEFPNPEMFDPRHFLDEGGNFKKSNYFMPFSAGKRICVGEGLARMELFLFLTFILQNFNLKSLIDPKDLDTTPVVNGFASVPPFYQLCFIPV
Chain of CYP2D6 (P10635 whole entry): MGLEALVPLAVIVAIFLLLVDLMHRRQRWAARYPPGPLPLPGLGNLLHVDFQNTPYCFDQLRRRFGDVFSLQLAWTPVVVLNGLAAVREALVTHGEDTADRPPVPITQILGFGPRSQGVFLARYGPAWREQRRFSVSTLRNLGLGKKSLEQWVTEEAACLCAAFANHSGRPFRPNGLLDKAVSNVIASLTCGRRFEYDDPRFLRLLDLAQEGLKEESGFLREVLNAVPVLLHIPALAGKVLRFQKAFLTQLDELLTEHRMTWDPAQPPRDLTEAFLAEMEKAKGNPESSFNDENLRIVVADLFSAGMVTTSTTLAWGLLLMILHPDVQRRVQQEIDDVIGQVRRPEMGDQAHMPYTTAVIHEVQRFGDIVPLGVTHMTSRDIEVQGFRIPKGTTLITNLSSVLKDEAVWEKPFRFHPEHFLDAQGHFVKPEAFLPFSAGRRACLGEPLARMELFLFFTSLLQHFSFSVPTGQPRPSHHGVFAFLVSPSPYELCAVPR
Chain of CYP2C9 (P11712 whole entry): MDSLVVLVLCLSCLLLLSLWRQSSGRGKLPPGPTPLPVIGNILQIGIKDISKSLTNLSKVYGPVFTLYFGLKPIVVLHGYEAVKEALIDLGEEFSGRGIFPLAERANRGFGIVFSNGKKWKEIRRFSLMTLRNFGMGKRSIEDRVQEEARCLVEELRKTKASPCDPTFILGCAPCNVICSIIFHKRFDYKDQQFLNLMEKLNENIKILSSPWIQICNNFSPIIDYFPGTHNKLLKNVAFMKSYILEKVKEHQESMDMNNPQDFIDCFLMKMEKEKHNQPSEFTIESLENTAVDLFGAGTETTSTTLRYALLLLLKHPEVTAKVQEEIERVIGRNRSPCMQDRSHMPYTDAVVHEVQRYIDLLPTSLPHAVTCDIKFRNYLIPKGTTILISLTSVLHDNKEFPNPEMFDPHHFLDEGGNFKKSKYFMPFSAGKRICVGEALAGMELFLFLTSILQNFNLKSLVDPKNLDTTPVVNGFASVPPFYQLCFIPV

| IC50 [1] [µM] | IC50 [2] [µM] | IC50 [3] [µM] | IC50 [4] [µM] | IC50 [5] [µM] | IC50 [6] [µM] | IC50 [7] [µM] | IC50 [8] [µM] | IC50 [9] [µM] | IC50 [11] [µM] | IC50 [12] [µM] | SMILES | turbidity threshold (L, M, H) 1.4 ([10]; pH 1.5 buffer (SGF)) | turbidity threshold (L, M, H) 4.5 ([10]; pH 4.5 buffer (SIF)) | turbidity threshold (L, M, H) 6.8 ([10]; pH 6.8 buffer (SIF)) | turbidity threshold (L, M, H) 7.4 ([10]; pH 7.4 buffer (HEPES)) |
| --- | --- | --- | --- | --- | --- | --- | --- | --- | --- | --- | --- | --- | --- | --- | --- |
| < 0.1 | < 0.1 | < 0.1 | > 10 | > 10 | > 10 | > 10 | > 10 | > 10 |  |  | COc1ccc(-c2cnc3[nH]cc(C(=O)c4c(F)ccc(NS(=O)(=O)c5cc(F)ccc5F)c4F)c3c2)cn1 [P-1404, N-{2,4-Difluoro-3-[5-(6-methoxy-pyridin-3-yl)-1H-pyrrolo[2,3-b]pyridine-3-carbonyl]-phenyl}-2,5-difluoro-benzenesulfonamide] |  |  |  |  |
|  |  | < 0.1 | > 10 | 5 to 10 | > 10 | > 10 | 5 to 10 | > 10 |  |  | CCCS(=O)(=O)Nc1ccc(F)c(C(=O)c2c[nH]c3ncc(-c4cnn(C5CCN(C(=O)OC(C)(C)C)CC5)c4)cc23)c1F [P-1001, 4-(4-{3-[2,6-Difluoro-3-(propane-1-sulfonylamino)-benzoyl]-1H-pyrrolo[2,3-b]pyridin-5-yl}-pyrazol-1-yl)-piperidine-1-carboxylic acid tert-butyl ester] | M (moderate solubility if the threshold concentration is 31.3 μM to 250 μM) | L (low solubility if the threshold concentration is <31.3 μM) | M (moderate solubility if the threshold concentration is 31.3 μM to 250 μM) | L (low solubility if the threshold concentration is <31.3 μM) |
| < 0.1 | < 0.1 | < 0.1 |  |  |  |  |  |  | > 1 | < 1 | CCCS(=O)(=O)Nc1ccc(F)c(C(=O)c2c[nH]c3ncc(-c4cnc(-n5ccccc5=O)cn4)cc23)c1F [P-1600, Propane-1-sulfonic acid (2,4-difluoro-3-{5-[5-(2-oxo-2H-pyridin-1-yl)-pyrazin-2-yl]-1H-pyrrolo[2,3-b]pyridine-3-carbonyl}-phenyl)-amide] |  |  |  |  |
